Test results reported in patent publication US20170001990A1 (Genentech, Inc., priority 2014, published 2017).
Several values for one entry are separate records, joined by “and”; a condition that tells them apart may be missing. Identical values can stand only once.

molecular target: Human recombinant carboxy-terminal his-tagged LDHA (amino acids 2-332) (Homo sapiens, UniProt P00338); assay: LDHA enzyme inhibition assay (NADH fluorescence); conditions: LDHA IC50 (μM), 1 nM LDHA, NADH and pyruvate, stereochemistry of tested sample given
Experimental: Test compounds were diluted in 100% DMSO with 1:3 serial dilutions. […] For the enzyme reaction, serially diluted compounds were added to a mixture of enzyme and NADH. […] Following the baseline read, pyruvate was added to the assay plates and the plates were read with excitation 340 nm and emission 480 nm for 10 minutes every 2.5 seconds. A suitable linear timeframe was selected (150-400 s) to calculate the slope of each concentration tested. The raw data were fitted to 4-parameter dose-response curves using the following equation:
fit=(A+((B−A)/(1+((C/x)̂D))))
inv=(C/((((B−A)/(y−A))−)̂(1/D)))
res=(y−fit) • where A=minimum y, B=maximum y, C=50% y max, and D=slope factor.
The curve bottom was set to the background rate (initial 5 second recording prior to addition of pyruvate) and curve top was set to no inhibitor (DMSO only) control wells rate.
The compounds of the present invention were tested for their capacity to inhibit LDHA activity and activation as described in the enzyme inhibition assay described above.

Row | IC50 | Structure (SMILES)
1 | 0.036 µM | O=C1CC(c2ccc(N3CCOCC3)cc2)(c2cccc(Oc3ccc(F)c(F)c3)n2)NC(=O)C1Sc1ccccc1Cl (centres unmarked) [Example 40, 3-(2-chlorophenyl)sulfanyl-6-[6-(3,4-difluorophenoxy)-2-pyridyl]6-(4-morpholinophenyl)piperidine-2,4-dione]
2 | 0.016 µM | O=C1CC(c2ccc(N3CCOCC3)cc2)(c2cccc(OC3CCCCC3)n2)NC(=O)C1Sc1ccccc1Cl (centres unmarked) [Example 41, 3-((2-chlorophenyl)thio)-6-(6-(cyclohexyloxy)pyridin-2-yl)-6-(4-morpholinophenyl)piperidine-2,4-dione]
3 | 0.005 µM and 0.01 µM and 0.017 µM | O=C1CC(c2ccc(N3CCOCC3)cc2)(c2cscn2)NC(=O)C1Sc1ccccc1Cl (centres unmarked) [Example 42, 3-((2-chlorophenyl)thio)-6-(4-morpholinophenyl)-6-(thiazol-4-yl) piperidine-2,4-dione]
4 | 0.017 µM | O=C1CC(c2ccc(N3CCCCC3)cc2)(c2ccsc2)NC(=O)C1Sc1cc(O)ccc1Cl (centres unmarked) [Example 43]
5 | 0.069 µM | O=C1CC(c2ccc(N3CC4(COC4)C3)cc2)(c2ccsc2)NC(=O)C1Sc1ccccc1Cl (centres unmarked) [Example 45, 3-(2-chlorophenyl) sulfanyl-6-[4-(2-oxa-6-azaspiro[3.3]heptan-6-yl)phenyl]-6-(3-thienyl)piperidine-2,4-dione]
6 | 0.005 µM | O=C1CC(c2ccsc2)(c2cccc(Oc3ccccn3)n2)NC(=O)C1Sc1ccccc1Cl (centres unmarked) [Example 46, 3-(2-chlorophenyl) sulfanyl-6-[6-(2-pyridyloxy)-2-pyridyl]-6-(3-thienyl)piperidine-2,4-dione]
7 | 0.052 µM | O=C1CC(c2ccsc2)(c2cccc(OC3CCCC3)n2)NC(=O)C1Sc1ccccc1Cl (centres unmarked) [Example 48, 3-((2-chlorophenyi)lliio)-6-(6-(cyclopentyloxy)pyridin-2-yl)-6-(thiophen-3-yl)piperidine-2 .4-dione]
8 | 0.025 µM | O=C1CC(c2ccsc2)(c2cccc(OC3CCOC3)n2)NC(=O)C1Sc1ccccc1Cl (centres unmarked) [Example 49, 3-((2-chlorophenyl)thio)-6-(6-((tetrahydrofuran-3-yl)oxy)pyridin-2-yl)-6-(thiophen-3-yl) piperidine-2,4-dione]
9 | 0.022 µM | O=C1CC(c2ccsc2)(c2cccc(Oc3ccc(F)cc3F)n2)NC(=O)C1Sc1ccccc1Cl (centres unmarked) [Example 50, 3-(2-chlorophenyl) sulfanyl-6-[6-(2,4-difluorophenoxy)-2-pyridyl]-6-(3-thienyl)piperidine-2,4-dione]
10 | 0.149 µM | Cc1cc(Oc2cccc(C3(c4ccsc4)CC(=O)C(Sc4ccccc4Cl)C(=O)N3)n2)ccc1F (centres unmarked) [Example 51, 5-((2-chlorophenyl)thio)-6′-(4-fluoro-3-methyl-phenoxy)-4-hydroxy-2-(thiophen-3-yl)-2,3-dihydro-[2,2′-bipyridin]-6(1H)-one]
11 | 0.045 µM | O=C1CC(c2ccsc2)(c2cccc(Oc3ccccc3F)n2)NC(=O)C1Sc1ccccc1Cl (centres unmarked) [Example 52, 3-(2-chlorophenyl)sulfanyl-6-[6-(2-fluorophenoxy)-2-pyridyl]-6-(3-thienyl)piperidine-2,4-dione]
12 | 0.011 µM | O=C1CC(c2ccsc2)(c2cccc(Oc3cccc(F)c3F)n2)NC(=O)C1Sc1ccccc1Cl (centres unmarked) [Example 53, 3-(2-chlorophenyl)sulfanyl-6-[6-(2,3-difluoro-phenoxy)-2-pyridyl]-6-(3-thienyl)piperidine-2,4-dione]
13 | 0.201 µM | O=C1CC(c2ccsc2)(c2cccc(Oc3cncnc3)n2)NC(=O)C1Sc1ccccc1Cl (centres unmarked) [Example 54, 3-(2-chlorophenyl)sulfanyl-6-(6-pyrimidin-5-yloxy-2-pyridyl)-6-(3-thienyl)piperidine-2,4-dione]

Continued, compound first:

Row | Structure (SMILES) | IC50
14 | O=C1CC(c2ccsc2)(c2ccc(N3CCOCC3)c(Br)n2)NC(=O)C1Sc1ccccc1Cl (centres unmarked) [Example 25, 6-(6-bromo-5-morpholino-2-pyridyl)-3-(2-chlorophenyl)sulfanyl-6-(3-thienyl)piperidine-2,4-dione] | 0.023 µM
15 | O=C1CC(c2ccsc2)(c2ccc(N3CCOCC3)c(Nc3ccc(F)cc3)n2)NC(=O)C1Sc1ccccc1Cl (centres unmarked) [Example 26, 3-(2-chlorophenyl)sulfanyl-6-[6-(4-fluoroanilino)-5-morpholino-2-pyridyl]-6-(3-thienyl)piperidine-2,4-dione] | 0.038 µM
16 | O=C1CC(c2ccsc2)(c2ccc(N3CCOCC3)c(Oc3ccc(F)cc3)n2)NC(=O)C1Sc1ccccc1Cl (centres unmarked) [Example 27, 3-(2-chlorophenyl)sulfanyl-6-[6-(4-fluorophenoxy)-5-morpholino-2-pyridyl]-6-(3-thienyl)piperidine-2,4-dione] | 0.05 µM
17 | O=C1CC(c2ccc(OCCCO)cc2)(c2ccsc2)NC(=O)C1Sc1ccccc1Cl (centres unmarked) [Example 28, 3-(2-chlorophenyl)sulfanyl-6-[4-(3-hydroxypropoxy)phenyl]-6-(3-thienyl)piperidine-2,4-dione] | 0.031 µM
18 | O=C1CC(c2ccc(OCCO)cc2)(c2ccsc2)NC(=O)C1Sc1ccccc1Cl (centres unmarked) [Example 29, 3-(2-chlorophenyl)sulfanyl-6-[4-(2-hydroxyethoxy)phenyl]-6-(3-thienyl)piperidine-2,4-dione] | 0.009 µM
19 | COCCOc1ccc(C2(c3ccsc3)CC(=O)C(Sc3ccccc3Cl)C(=O)N2)cc1 (centres unmarked) [Example 30, 3-(2-chlorophenyl)sulfanyl-6-[4-(2-methoxyethoxy)phenyl]-6-(3-thienyl)piperidine-2,4-dione] | 0.053 µM
20 | COCCCOc1ccc(C2(c3ccsc3)CC(=O)C(Sc3ccccc3Cl)C(=O)N2)cc1 (centres unmarked) [Example 31, 3-(2-chlorophenyl)sulfanyl-6-[4-(3-methoxypropoxy)phenyl]-6-(3-thienyl)piperidine-2,4-dione] | 0.008 µM
21 | O=C1CC(c2ccsc2)(c2ccc3ccccc3c2)NC(=O)C1Sc1ccccc1Cl (centres unmarked) [Example 32, 3-(2-chlorophenyl)sulfanyl-6-(2-naphthyl)-6-(3-thienyl)piperidine-2,4-dione] | 0.01 µM
22 | CN1C(=O)C(Sc2ccccc2Cl)C(=O)CC1(c1ccsc1)c1cccc(NC2CCOCC2)c1 (centres unmarked) [Example 34, 3-(2-chlorophenyl)sulfanyl-1-methyl-6-[3-(tetrahydropyran-4-ylamino)phenyl]-6-(3-thienyl)piperidine-2,4-dione] | 0.033 µM
23 | O=C1CC(c2ccsc2)(c2ccc(N3CCOCC3)cc2O)NC(=O)C1Sc1ccccc1Cl (centres unmarked) [Example 35, 3-(2-chlorophenyl)sulfanyl-6-(2-hydroxy-4-morpholino-phenyl)-6-(3-thienyl)piperidine-2,4-dione] | 0.007 µM
24 | O=C1CC(c2ccsc2)(c2ccccc2O)NC(=O)C1Sc1ccccc1Cl (centres unmarked) [Example 36, 3-(2-chlorophenyl)sulfanyl-6-(2-hydroxyphenyl)-6-(3-thienyl)piperidine-2,4-dione] | 0.021 µM and 0.008 µM and 0.025 µM
25 | O=C1CC(c2ccc(N3CCOCC3)cc2)(c2cccc(Br)n2)NC(=O)C1Sc1ccccc1Cl (centres unmarked) [Example 38, 6-(6-bromopyridin-2-yl)-3-((2-chlorophenyl)thio)-6-(4-morpholinophenyl)piperidine-2,4-dione] | 0.004 µM
26 | O=C1CC(c2ccc(N3CCOCC3)cc2)(c2cccc(Nc3ccc(F)cc3)n2)NC(=O)C1Sc1ccccc1Cl (centres unmarked) [Example 39, 3-((2-chlorophenyl)thio)-6-(6-((4-fluorophenyl)amino)pyridin-2-yl)-6-(4-morpholinophenyl)piperidine-2,4-dione] | 0.003 µM and 0.012 µM
